Reference: ChEMBL document CHEMBL1201862, “PubChem BioAssay data set” (2004)
The source made the active and inactive calls.

Key:
Cytochrome P450 3A4 [1] = target: T1, Cytochrome P450 3A4 (Homo sapiens, UniProt P08684);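 also: CYP3A4 tested as one member of a cytochrome P450 panel screen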
[2] = target: Voltage-dependent T-type calcium channel subunit alpha-1H (Homo sapiens, UniProt O95180); assay type: functional;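 also: channel activity triggered by adding a high calcium stimulation buffer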
[3] = target: T2, Heat shock factor protein 1 (Mus musculus, UniProt P38532); test: decrease of HSF1-responsive luciferase luminescence – cell-based, NIH3T3, dose retest, confirmation (AID 2382); assay type: functional;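 also: NIH3T3 fibroblasts with HSF1-driven luciferase reporter stressed by proteasome inhibitor MG132; luminescence from HSF1-driven luciferase expression after 8 hours of MG132 stress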
T2 sequence (P38532 whole entry): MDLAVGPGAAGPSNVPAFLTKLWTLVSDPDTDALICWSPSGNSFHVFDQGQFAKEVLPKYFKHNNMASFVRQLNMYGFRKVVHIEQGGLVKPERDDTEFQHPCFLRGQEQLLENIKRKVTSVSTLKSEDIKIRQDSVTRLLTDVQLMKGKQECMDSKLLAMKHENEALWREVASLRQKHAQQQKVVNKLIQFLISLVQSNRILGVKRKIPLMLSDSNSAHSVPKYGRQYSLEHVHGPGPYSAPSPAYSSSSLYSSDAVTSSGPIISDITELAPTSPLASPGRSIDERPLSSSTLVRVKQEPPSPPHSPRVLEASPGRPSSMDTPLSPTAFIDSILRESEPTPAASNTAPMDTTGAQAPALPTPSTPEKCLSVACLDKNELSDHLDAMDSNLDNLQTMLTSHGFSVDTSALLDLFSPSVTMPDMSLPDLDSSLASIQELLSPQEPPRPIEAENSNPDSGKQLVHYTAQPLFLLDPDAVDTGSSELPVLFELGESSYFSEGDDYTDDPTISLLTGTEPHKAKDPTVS

Cytochrome P450 2D6 = Cytochrome P450 2D6 (Homo sapiens, UniProt P10635);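 also: CYP2D6 member of a cytochrome P450 panel assay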
Chain of Cytochrome P450 2D6 (P10635 whole entry): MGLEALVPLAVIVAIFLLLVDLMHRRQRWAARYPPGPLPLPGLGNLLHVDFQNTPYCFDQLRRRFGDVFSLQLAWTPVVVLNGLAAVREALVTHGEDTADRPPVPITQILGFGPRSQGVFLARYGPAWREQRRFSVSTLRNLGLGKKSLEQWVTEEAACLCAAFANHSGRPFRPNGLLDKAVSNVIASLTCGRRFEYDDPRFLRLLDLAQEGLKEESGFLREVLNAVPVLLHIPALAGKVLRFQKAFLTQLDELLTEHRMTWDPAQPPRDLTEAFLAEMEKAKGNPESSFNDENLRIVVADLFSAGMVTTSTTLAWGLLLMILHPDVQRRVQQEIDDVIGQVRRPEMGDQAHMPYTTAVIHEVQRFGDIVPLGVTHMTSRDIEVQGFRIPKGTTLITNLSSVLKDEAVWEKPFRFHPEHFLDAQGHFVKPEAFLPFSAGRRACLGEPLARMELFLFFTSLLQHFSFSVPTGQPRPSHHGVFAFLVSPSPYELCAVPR

[4] = decrease of insulin promoter-GFP reporter – imaging, high-content screening, mouse beta cells (AID 1628); assay type: functional; settings: MIN6
[5] = target: Photoreceptor-specific nuclear receptor (Homo sapiens, UniProt Q9Y5X4); assay type: functional, cell-based;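 also: CHO-S cells with Gal4-NCOR and VP16-NR2E3 two-hybrid luciferase reporter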
Chain of Photoreceptor-specific nuclear receptor (Q9Y5X4 whole entry, the tested form may be a part): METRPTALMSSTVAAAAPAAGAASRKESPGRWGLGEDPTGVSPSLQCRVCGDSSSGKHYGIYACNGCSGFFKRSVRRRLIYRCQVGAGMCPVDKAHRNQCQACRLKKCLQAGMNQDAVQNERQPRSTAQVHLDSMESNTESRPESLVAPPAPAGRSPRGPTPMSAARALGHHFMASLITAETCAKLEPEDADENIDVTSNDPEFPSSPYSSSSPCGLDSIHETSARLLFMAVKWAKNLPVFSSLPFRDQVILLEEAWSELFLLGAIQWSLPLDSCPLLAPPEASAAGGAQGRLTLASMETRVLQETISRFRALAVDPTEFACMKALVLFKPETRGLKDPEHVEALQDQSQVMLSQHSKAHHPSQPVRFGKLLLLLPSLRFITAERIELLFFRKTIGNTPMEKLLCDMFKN

[6] = MIN6 cell viability loss – mouse insulinoma, cytotoxicity control, dose response (AID 2122); assay type: functional;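 also: confirmatory high-throughput counterscreen run to flag cytotoxic compounds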
Cytochrome P450 2C9 = Cytochrome P450 2C9 (Homo sapiens, UniProt P11712)
Chain of Cytochrome P450 2C9 (P11712 whole entry): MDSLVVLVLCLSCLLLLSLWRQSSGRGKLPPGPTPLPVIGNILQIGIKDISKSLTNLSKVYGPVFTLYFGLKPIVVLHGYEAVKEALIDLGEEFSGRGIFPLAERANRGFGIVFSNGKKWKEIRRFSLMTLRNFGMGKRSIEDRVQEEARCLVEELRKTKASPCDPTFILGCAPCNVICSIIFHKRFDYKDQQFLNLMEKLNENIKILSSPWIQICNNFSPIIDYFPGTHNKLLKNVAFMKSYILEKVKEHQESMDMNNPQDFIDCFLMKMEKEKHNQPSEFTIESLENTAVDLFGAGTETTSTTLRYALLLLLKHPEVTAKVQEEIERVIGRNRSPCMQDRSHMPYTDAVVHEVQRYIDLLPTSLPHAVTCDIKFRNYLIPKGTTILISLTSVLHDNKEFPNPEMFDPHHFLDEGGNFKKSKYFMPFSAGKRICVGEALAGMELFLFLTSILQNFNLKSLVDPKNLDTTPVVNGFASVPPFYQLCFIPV

Cytochrome P450 3A4 [7] = target: T1, Cytochrome P450 3A4; remark: listed apart in the source
Cytochrome P450 2C19 = Cytochrome P450 2C19 (Homo sapiens, UniProt P33261); test: Cytochrome panel assay with activity outcomes. Panel member name: p450-cyp2c19 Compounds with AC50 equal or less than 10 uM are considered active; assay type: functional
Chain of Cytochrome P450 2C19 (P33261 whole entry): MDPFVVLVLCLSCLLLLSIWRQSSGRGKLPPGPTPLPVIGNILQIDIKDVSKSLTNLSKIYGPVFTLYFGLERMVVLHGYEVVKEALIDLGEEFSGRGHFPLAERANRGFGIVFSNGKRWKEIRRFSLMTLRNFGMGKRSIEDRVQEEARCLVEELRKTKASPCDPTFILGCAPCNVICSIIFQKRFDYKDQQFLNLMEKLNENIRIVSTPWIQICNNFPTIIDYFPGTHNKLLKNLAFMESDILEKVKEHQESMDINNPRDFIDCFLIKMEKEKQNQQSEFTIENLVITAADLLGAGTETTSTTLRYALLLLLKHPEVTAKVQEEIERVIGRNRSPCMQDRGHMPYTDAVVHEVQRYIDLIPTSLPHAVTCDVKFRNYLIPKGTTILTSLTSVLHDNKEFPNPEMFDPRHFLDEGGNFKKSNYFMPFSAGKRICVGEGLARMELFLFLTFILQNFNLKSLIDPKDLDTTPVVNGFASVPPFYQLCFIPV

INS1 = test: INS-1E survival protection against cytokine death – cell-based, luminescence, retest, dose response (AID 449756); assay type: functional; settings: Rattus norvegicus;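 also: cell death triggered by IL-1 beta plus TNF-alpha plus IFN-gamma mixture; protective hits raise ATP signal compared with cytokine alone wells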
[8] = target: T3, Lysine-specific demethylase 4A (Homo sapiens, UniProt O75164); test: inhibition of JMJD2A H3K9me3 demethylation – biochemical, DELFIA europium, cherry-picked samples, selectivity assay for GASC-1 inhibitor project, dose response (AID 488840)
T3 sequence (O75164 whole entry): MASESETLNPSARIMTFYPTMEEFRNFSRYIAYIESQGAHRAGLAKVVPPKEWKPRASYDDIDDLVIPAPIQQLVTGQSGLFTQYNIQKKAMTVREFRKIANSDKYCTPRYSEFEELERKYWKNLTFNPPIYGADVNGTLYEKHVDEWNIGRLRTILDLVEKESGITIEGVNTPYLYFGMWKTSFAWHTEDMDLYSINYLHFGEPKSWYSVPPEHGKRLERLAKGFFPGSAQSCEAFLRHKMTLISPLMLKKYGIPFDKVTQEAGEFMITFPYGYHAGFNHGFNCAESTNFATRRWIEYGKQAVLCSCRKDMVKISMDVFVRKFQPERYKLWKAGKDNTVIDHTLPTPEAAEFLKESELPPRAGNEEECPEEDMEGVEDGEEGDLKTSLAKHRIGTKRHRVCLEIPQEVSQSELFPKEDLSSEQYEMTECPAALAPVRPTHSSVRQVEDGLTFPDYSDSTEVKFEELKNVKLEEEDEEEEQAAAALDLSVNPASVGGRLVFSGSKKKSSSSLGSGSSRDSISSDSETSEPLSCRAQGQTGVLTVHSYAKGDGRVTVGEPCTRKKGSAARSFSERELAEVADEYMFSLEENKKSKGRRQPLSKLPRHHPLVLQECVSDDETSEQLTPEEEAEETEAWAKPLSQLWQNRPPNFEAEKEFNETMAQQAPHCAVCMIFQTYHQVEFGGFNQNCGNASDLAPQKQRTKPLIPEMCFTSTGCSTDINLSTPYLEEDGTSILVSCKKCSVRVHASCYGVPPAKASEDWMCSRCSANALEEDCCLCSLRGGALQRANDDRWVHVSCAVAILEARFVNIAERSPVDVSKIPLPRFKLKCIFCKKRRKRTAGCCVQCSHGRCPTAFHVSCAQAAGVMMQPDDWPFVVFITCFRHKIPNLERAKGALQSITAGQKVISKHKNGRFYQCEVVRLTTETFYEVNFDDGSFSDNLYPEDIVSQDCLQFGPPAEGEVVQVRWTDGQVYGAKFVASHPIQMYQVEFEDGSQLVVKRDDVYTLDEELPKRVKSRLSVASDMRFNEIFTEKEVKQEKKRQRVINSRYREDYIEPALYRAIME

[9] = target: T4, Tyrosine-protein phosphatase non-receptor type 22 (Homo sapiens, UniProt Q9Y2R2); test: inhibition of lymphoid tyrosine phosphatase LYP – biochemical, pCAP fluorogenic substrate, fluorescence, set 3, SAR follow-up (AID 449727); assay type: functional
T4 sequence (Q9Y2R2 whole entry): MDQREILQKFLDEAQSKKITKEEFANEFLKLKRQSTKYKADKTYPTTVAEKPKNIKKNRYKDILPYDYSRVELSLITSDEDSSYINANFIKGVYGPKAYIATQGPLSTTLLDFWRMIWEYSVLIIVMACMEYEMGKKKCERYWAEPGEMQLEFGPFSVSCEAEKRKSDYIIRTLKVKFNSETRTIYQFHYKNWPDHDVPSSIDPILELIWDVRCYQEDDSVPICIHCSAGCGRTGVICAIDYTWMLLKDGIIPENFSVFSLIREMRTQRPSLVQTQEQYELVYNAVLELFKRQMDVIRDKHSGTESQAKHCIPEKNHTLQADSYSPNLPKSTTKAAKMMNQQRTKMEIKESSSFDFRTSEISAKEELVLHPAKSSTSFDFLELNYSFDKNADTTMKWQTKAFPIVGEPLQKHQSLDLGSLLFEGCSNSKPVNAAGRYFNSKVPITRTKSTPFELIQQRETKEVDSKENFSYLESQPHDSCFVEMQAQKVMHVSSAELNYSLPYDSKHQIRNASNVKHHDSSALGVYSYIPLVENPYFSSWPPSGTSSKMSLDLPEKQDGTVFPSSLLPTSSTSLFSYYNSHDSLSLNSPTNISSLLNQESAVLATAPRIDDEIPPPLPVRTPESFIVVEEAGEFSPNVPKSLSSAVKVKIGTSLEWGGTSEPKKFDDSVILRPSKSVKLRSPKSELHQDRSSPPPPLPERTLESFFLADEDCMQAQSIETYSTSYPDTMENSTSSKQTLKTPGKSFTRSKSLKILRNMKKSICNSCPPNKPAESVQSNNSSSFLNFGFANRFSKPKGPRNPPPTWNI

[10] = target: T5, Tyrosine-protein phosphatase non-receptor type 7 (Homo sapiens, UniProt P35236); test: inhibition of hematopoietic tyrosine phosphatase HePTP – biochemical, set 2, SAR follow-up (AID 449736); assay type: functional
T5 sequence (P35236 whole entry): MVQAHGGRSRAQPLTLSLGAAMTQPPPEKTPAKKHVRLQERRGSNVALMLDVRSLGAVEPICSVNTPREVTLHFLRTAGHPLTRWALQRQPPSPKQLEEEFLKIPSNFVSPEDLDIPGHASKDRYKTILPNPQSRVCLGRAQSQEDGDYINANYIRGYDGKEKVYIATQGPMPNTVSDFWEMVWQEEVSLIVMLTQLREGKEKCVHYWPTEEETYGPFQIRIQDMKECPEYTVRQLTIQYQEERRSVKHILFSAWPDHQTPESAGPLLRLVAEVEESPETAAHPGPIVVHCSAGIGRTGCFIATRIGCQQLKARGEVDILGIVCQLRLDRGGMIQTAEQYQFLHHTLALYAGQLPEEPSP

[11] = target: T4, Tyrosine-protein phosphatase non-receptor type 22; test: SAR LYP1 Fluorescent Assay using OMFP substrate for In Vitro dose response studies - Set 2. [Related pubchem assays (depositor defined):AID1779, AID1784, AID2140, AID449726, AID488869]; assay type: functional
[12] = target: T4, Tyrosine-protein phosphatase non-receptor type 22; test: SAR LYP1 Fluorescent Assay using OMFP substrate for In Vitro dose response studies - Set 3. [Related pubchem assays (depositor defined):AID1779, AID1784, AID2140, AID2686]; assay type: functional
[13] = target: T6, Tyrosine-protein phosphatase non-receptor type 12 (Homo sapiens, UniProt Q05209); test: SAR Selectivity Analysis of small molecule inhibitors of PEST using pCAP in a fluorescence assay. [Related pubchem assays (depositor defined):AID1779, AID1784, AID2135]; assay type: functional
T6 sequence (Q05209 whole entry): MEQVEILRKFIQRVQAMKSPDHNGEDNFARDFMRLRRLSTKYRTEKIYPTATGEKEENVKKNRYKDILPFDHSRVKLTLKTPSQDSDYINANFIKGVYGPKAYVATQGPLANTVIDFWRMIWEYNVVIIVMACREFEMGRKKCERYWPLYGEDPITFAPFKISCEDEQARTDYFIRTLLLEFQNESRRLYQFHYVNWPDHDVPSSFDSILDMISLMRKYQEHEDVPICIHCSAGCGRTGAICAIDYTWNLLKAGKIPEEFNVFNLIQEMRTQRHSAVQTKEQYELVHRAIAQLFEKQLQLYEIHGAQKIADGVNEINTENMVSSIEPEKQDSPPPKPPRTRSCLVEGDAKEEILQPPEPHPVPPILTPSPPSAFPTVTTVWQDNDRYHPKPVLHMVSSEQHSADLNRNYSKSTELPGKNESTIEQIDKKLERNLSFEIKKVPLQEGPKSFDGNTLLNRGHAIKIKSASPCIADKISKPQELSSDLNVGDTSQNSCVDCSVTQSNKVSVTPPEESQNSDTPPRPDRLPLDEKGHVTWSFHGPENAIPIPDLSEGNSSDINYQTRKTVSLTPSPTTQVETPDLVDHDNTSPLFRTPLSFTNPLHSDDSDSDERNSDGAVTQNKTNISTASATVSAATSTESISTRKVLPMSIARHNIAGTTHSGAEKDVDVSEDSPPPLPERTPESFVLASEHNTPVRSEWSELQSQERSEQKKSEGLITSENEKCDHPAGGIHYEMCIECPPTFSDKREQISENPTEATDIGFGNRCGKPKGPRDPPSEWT

[14] = target: T4, Tyrosine-protein phosphatase non-receptor type 22; test: SAR LYP1 Fluorescent Assay using pCAP substrate for In Vitro dose response studies - Set 2. [Related pubchem assays (depositor defined):AID1779, AID1784, AID2135, AID449727]; assay type: functional

T1 sequence (P08684 whole entry): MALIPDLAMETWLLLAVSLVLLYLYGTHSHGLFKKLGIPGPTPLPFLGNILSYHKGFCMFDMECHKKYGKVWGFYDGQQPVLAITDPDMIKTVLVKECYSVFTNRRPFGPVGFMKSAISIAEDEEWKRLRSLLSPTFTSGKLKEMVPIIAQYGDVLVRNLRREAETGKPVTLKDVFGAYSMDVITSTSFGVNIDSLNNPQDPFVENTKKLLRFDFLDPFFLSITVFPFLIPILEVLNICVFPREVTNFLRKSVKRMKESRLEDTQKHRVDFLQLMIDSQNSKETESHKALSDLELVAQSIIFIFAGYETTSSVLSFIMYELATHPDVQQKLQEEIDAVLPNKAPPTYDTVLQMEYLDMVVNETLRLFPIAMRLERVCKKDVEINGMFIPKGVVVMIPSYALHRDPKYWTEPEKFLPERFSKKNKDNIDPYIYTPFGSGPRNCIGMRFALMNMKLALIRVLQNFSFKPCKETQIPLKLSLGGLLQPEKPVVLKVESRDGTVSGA
Chain of Voltage-dependent T-type calcium channel subunit alpha-1H (O95180 whole entry): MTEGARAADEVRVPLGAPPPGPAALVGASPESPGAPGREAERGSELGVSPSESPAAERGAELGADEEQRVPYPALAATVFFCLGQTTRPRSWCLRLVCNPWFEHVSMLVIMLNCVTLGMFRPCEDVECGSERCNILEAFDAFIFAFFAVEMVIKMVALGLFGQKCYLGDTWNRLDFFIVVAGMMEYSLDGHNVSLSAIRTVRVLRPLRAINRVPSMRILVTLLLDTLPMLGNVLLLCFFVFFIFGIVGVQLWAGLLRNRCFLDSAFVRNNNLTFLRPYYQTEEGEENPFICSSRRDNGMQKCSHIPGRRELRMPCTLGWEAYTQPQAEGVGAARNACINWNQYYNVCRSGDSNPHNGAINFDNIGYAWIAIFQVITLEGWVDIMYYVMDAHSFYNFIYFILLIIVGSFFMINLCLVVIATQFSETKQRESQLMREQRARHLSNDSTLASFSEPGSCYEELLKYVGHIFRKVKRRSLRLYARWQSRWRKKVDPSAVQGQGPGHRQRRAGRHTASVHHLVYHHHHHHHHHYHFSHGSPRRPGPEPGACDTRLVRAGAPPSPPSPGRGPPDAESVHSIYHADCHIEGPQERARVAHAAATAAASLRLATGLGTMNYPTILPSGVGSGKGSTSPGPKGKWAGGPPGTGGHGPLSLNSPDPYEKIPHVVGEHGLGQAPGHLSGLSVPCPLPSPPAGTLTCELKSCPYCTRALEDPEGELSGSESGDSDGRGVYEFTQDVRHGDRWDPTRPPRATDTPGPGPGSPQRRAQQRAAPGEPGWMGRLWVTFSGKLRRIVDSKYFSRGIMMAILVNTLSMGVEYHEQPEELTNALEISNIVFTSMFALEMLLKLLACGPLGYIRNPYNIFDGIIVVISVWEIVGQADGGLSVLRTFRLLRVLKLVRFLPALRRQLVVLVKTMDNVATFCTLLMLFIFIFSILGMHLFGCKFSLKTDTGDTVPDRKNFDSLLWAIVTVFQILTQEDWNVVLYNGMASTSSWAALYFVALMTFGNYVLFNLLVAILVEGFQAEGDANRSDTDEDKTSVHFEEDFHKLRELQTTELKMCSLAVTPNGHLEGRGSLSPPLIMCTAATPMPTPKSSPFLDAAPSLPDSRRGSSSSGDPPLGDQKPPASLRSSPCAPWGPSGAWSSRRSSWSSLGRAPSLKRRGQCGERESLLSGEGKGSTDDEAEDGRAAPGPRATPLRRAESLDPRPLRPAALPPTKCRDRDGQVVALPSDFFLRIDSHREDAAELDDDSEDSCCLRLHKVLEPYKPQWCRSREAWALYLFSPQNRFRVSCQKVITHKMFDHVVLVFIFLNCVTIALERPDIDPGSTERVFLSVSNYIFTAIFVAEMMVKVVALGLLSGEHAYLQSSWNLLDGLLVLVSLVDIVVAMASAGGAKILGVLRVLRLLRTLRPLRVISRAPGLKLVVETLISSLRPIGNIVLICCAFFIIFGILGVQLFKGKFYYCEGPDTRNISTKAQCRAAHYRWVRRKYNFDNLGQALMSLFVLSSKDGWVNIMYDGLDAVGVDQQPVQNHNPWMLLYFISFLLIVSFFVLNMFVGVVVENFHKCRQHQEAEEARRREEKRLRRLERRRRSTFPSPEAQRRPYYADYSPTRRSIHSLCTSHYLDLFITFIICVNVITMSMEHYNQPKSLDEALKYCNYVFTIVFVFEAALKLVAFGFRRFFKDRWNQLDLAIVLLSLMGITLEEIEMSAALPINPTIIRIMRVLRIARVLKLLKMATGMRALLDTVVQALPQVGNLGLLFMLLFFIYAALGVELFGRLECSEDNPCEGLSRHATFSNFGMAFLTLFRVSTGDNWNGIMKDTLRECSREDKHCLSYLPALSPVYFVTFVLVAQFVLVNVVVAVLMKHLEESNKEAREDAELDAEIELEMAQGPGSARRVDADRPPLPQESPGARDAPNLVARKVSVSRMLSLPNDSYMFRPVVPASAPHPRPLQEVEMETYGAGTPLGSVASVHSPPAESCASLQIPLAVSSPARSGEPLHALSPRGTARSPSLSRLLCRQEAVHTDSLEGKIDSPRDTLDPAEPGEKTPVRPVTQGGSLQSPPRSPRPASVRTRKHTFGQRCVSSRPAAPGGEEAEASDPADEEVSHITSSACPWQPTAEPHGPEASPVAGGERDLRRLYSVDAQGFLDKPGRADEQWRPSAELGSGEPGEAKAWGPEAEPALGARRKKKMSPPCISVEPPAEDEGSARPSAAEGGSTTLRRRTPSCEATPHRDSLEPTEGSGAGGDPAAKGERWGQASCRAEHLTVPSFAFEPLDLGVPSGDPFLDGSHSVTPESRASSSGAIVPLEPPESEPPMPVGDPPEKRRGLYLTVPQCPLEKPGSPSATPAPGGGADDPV

In the case of `O=S(=O)(Cc1cc(Oc2ccccc2)nc(-c2ccccc2)n1)c1ccccc1`, the AC50 (Cytochrome P450 3A4 [1]) is reported as “inconclusive”, the EC50 [2] is reported as 19.2 µM (active) and the EC50 [3] is reported as > 195 µM (not active). For the same molecule, the AC50 (Cytochrome P450 2D6) was “inconclusive”.
For `Cc1nc2ncnn2c(N2CCN(c3cccc(C(F)(F)F)c3)CC2)c1C`, the IC50 [4] was 2.94 µM (active), the IC50 [5] was 0.838 µM (active) and the IC50 [6] was 3.77 µM (active).
For `CC1(C)[C@@H]2CC[C@@](C)(C2)[C@H]1OC(=O)c1ccccc1C(=O)O`, the AC50 (Cytochrome P450 2C9) was 3.16 µM (inconclusive), the AC50 (Cytochrome P450 3A4 [7]) was 3.98 µM (inconclusive) and the AC50 (Cytochrome P450 2D6) was “inconclusive”. For the same molecule, the AC50 (Cytochrome P450 2C19) was “inconclusive”.
With `O=C(COc1ccc2ccccc2c1)N1CCN(Cc2c[nH]c3ccccc23)CC1` the IC50 [4] was 4.5 µM (active), the AC50 (INS1) was 2.58 µM (active) and the IC50 [6] was 3.26 µM (active).
In the case of `COc1cc2c(cc1OC)C1=C(C#N)COCN1CC2`, the AC50 [8] is reported as 0.644 µM (active).
In the case of `C/C(=N/NC(=O)c1ccccc1)c1ccc(OCC(=O)O)cc1`, the IC50 [9] is reported as > 100 µM (inactive), the IC50 [10] is reported as > 100 µM (inactive) and the IC50 [11] is reported as > 100 µM (inactive). The IC50 [12] was > 100 µM (inactive), the IC50 [13] was > 100 µM (inactive) and the IC50 [14] was > 100 µM (inactive).
